Test results from patent US10208034B2, “Quinoline derivative” (ONO PHARMACEUTICAL CO., LTD., priority 2014, dated 2019).

Biological target: T1, Human CYP2C8 (Homo sapiens, UniProt P10632)
T1 construct: purchased Cypex; host or cells: E. coli
T1 sequence (P10632 1-490): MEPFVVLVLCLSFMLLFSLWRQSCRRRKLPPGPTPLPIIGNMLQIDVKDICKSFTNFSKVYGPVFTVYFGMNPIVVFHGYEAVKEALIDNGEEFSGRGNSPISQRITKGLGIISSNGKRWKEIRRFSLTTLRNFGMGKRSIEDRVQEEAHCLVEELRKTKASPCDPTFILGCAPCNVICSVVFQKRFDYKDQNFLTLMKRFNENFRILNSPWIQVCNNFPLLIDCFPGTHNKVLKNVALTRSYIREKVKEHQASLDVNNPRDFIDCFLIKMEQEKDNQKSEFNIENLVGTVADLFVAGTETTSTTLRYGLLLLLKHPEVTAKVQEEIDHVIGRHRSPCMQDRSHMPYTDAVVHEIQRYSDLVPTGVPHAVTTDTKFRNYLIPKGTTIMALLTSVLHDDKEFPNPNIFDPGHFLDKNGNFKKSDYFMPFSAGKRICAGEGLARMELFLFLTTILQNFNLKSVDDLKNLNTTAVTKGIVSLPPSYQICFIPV
Assay: Inhibitory activity of drug-metabolizing enzyme (human CYP2C8 inhibition effect)
Type: in vitro ADME
Settings: E. coli-expressed CYP2C8, Luciferin-ME substrate, 37° C. 30 min, from inhibition at 1 and 10 μmol/L
Protocol: The reaction was carried out in a 384-well plate. As the positive control substance (CYP2C8: quercetin), a solution, which had been adjusted with DMSO to have 300 times higher concentration than the final concentration (CYP2C8: 22.5 and 225 μmol/L) and been 75-fold diluted with purified water containing 2.7% acetonitrile, was prepared (CYP2C8: 0.3 and 3 μmol/L). […] Thereafter, 16 μL of luciferase solution was added to stop the reaction and to allow luciferin to emit light, and the luminescence intensity of the reaction solution was measured. The inhibition rate is a reduction rate (inhibition rate) of the luminescence intensity when compared with the control in which the reaction was carried out by the addition of DMSO in place of the test compound solution. The inhibition rate was calculated from the following mathematical formula. Inhibition rate (%)=100−{(luminescence intensity of test compound−background luminescence intensity)/(luminescence intensity of control−background luminescence intensity)×100} [Math. […]
The IC50 value of the compound of the present invention was measured using the measurement method described above.

SMILES | IC50 [µM]
COc1cc2nccc(Oc3ccc(NC(=O)c4cc(C(C)=O)cn(-c5ccccc5)c4=O)nc3)c2cc1OC [Example 21, 5-acetyl-N-{5-[(6,7-dimethoxy-4-quinolinyl)oxy]-2-pyridinyl}-2-oxo-1-phenyl-1,2-dihydro-3-pyridinecarboxamide] | > 10
COc1cc2nccc(Oc3ccc(NC(=O)c4c5c(cn(-c6ccccc6)c4=O)C(=O)CCC5)nc3)c2cc1OC [Example 42, N-{5-[(6,7-dimethoxy-4-quinolinyl)oxy]-2-pyridinyl}-3,8-dioxo-2-phenyl-2,3,5,6,7,8-hexahydro-4-isoquinolinecarboxamide] | > 10
